In patent US20170037091A1, “STY PEPTIDES FOR INHIBITION OF ANGIOGENESIS” (RESEARCH DEVELOPMENT FOUNDATION, priority 2014, published 2017):

Legend:
[1] = test system: CRL 1500 breast cancer cell line; assay: XTT cell proliferation assay, CRL 1500 breast cancer cells; assay type: cell-based, human
Procedure: (§1) A 26 amino acid sequence corresponding to a Ser-Thr-Tyr domain within RTEF-1 (FIG. 1), linked to a 10 amino acid cell importation signal (RMR) was synthesized (GenScript NJ). Human ocular melanoma cells (Mel 270, Mel 202), retinoblastoma cells (Y79; ATTC, MD), primate ocular endothelial retina/choroid ocular endothelial cells (RF/6A; ATCC, MD), human retinal pigment epithelial cells (ARPE19; ATCC, MD), and the CRL 1500 breast cancer cell line (ATCC, MD) were plated into 96 well plates and cultured for 24 h. […]
(§2) Cell proliferation was assessed at 72 h using a colorimetric XTT assay (Roche Diagnostics, Indianpolis, Conn., USA). Cell proliferation was expressed as a percentage and compared with untreated control cell growth (N=3).

[2] = test system: primate ocular endothelial retina/choroid ocular endothelial cells (RF/6A); assay: XTT cell proliferation assay, RF/6A ocular endothelial cells; assay type: cell-based; settings: 30 mg/100 mL, XTT at 72 h
Procedure: (§3) A 26 amino acid sequence corresponding to a Ser-Thr-Tyr domain within RTEF-1 (FIG. 1), linked to a 10 amino acid cell importation signal (RMR) was synthesized (GenScript NJ). Human ocular melanoma cells (Mel 270, Mel 202), retinoblastoma cells (Y79; ATTC, MD), primate ocular endothelial retina/choroid ocular endothelial cells (RF/6A; ATCC, MD), human retinal pigment epithelial cells (ARPE19; ATCC, MD), and the CRL 1500 breast cancer cell line (ATCC, MD) were plated into 96 well plates and cultured for 24 h. Recombinant STY-RMR peptide was added to the cell culture media at various concentrations (10 to 30 mg/100 mL).
as §2

[3] = test system: human retinal pigment epithelial cells (ARPE19); assay: XTT cell proliferation assay, ARPE-19 cells; assay type: cell-based; settings: 30 mg/100 mL, XTT at 72 h
Procedure: as §3, §2

[4] = test system: Human ocular melanoma cells (Mel 202); assay: XTT cell proliferation assay, Mel 202 ocular melanoma cells; assay type: cell-based; settings: 30 mg/100 mL, XTT at 72 h, N=3
Procedure: as §3, §2

[5] = test system: Human ocular melanoma cells (Mel 270); assay: XTT cell proliferation assay, Mel 270 ocular melanoma cells; assay type: cell-based; settings: 30 mg/100 mL, XTT at 72 h
Procedure: as §3, §2

[6] = test system: secreted VEGF, breast cancer cells (CRL 1500); assay: VEGF ELISA of culture media, CRL 1500 breast cancer cells; assay type: cell-based, human; settings: 0.1 μg/100 μL, three days
Procedure: as §1
(§4) The amount of VEGF within the media was determined by VEGF ELISA (R&D Systems, MN, USA) and compared between STY-RMR treated and controls (N=3).

[7] = test system: secreted VEGF, ocular melanoma cell line 270; assay: VEGF ELISA of culture media, Mel 270 cells; assay type: cell-based, human; settings: 30 mg/100 mL, three days
Procedure: as §3, §4

[8] = test system: secreted VEGF, ocular retinal-choroidal derived vascular endothelial cells (RF/6A); assay: VEGF ELISA of culture media, RF/6A cells; assay type: cell-based, primate; settings: 30 mg/100 mL, three days
Procedure: as §3, §4

[9] = test system: secreted VEGF, ARPE19 cells; assay: VEGF ELISA of culture media, ARPE19 cells; assay type: cell-based, human; settings: 30 mg/100 mL, three days
Procedure: as §3, §4

[10] = test system: secreted VEGF in the media of all tested cell lines; assay: VEGF ELISA of culture media, all tested cell lines (summary statement); assay type: cell-based; settings: all tested cell lines exposed to STY-RMR
Procedure: as §3, §4

For “STY-RMR: 26 amino acid STY domain of RTEF-1 linked to 10 amino acid RMR cell importation signal; 36 amino acids (SEQ ID NO:2) (SSFYGVSSQYESPENMIITCSTKVCSRMRRMRRMRR)”, the “inhibition of breast cancer cell (CRL 1500) proliferation” value (“inhibition of breast cancer cell” for short) ([1]; 0.1 μg/100 μL twice a day for three days) was 9%, the “inhibition of breast cancer cell” value ([1]; 0.2 μg/100 μL twice a day for three days) was 27% and the “inhibition of breast cancer cell” value ([1]; 0.5 μg/100 μL twice a day for three days) was 27%. The “inhibition of breast cancer cell” value ([1]; 1 μg/100 μL twice a day for three days) was 27%, the “inhibition of breast cancer cell” value ([1]; 5 μg/100 μL twice a day for three days) was 50% and the “inhibition of breast cancer cell” value ([1]; 6 μg/100 μL twice a day for three days) was 50%. The “inhibition of RF/6A ocular endothelial cell proliferation” value [2] was 42%, the “inhibition of ARPE-19 retinal pigment epithelial cell proliferation” value [3] was 75% and the “inhibition of Mel 202 ocular melanoma cell proliferation” value [4] was 87%. The “inhibition of Mel270 ocular melanoma cell proliferation below control” value [5] was 60%, the “decrease of VEGF levels in breast tumor cells (ELISA)” value [6] was 78% and the “reduction in secreted VEGF levels, ocular melanoma cell line 270 (ELISA)” value [7] was 81%. The “reduction of secreted VEGF, RF/6A ocular vascular endothelial cells (ELISA)” value [8] was 80%, the “reduction of VEGF levels compared to control, ARPE19 cells (ELISA)” value [9] was 88% and the “secreted VEGF in the media, result in words” value [10] was “decreased”.
